Earlier results, collected in US20230030915A1, “Pet Food Compositions” (Hill's Pet Nutrition, Inc., priority 2019, published 2023).

Test system: piglets

maximum supplementation rate at which safe (via feed): 2 000 mg/kg complete feed
Structure (SMILES): C[N+](C)(C)CC(=O)O [Betaine, Glycine betaine]
margin of safety (at 2 000 mg/kg complete feed): below 5
